Reference: PubChem BioAssay AID1996
Values after ≈ are worked out from the molar mass of the structure shown.

conditions: buffer; pH 7.4; 200.0 µM

Compound | solubility kinetic [µg/mL]
O=C(CNc1ccccc1C(=O)O)c1ccccc1 | 36.3 (≈ 142 µM)
CC(=O)Oc1ccc(C(=O)NCCc2ccccc2)cc1 | 21.5 (≈ 75.9 µM)
COc1ccc(-n2c(C)ccc2-c2ccccc2)cn1 | 5.9 (≈ 22.3 µM)
O=c1[nH]c2ccc(S(=O)(=O)Nc3ccc(Cl)cc3)cc2o1 | > 48.7
CC[n+]1ccc(C(=O)NCc2ccccc2)cc1.[Cl-] | > 41.5
CNC(=O)c1c(NC(=O)c2ccc3ncsc3c2)sc(C)c1C | 2 (≈ 5.79 µM)
CC(NC(=O)NC(=O)c1cccc(Cl)c1)c1ccccc1 (stereo not given) | 0.9 (≈ 2.97 µM)
Cn1c(=O)c2c(O)c([N+](=O)[O-])c(=O)n(C)c2n(C)c1=O | > 42.3
CN(C)/C=C/C(=O)c1ccc(C(F)(F)F)cc1F | 35 (≈ 134 µM)
C=CCn1c(NC(=O)c2ccccc2)nc2ccccc21 | 0.8 (≈ 2.88 µM)
COc1ccccc1C(=O)NC(=O)CSc1cccc[n+]1[O-] | > 47.8
COP(=O)(Cc1ccc(C#N)o1)OC | > 32.3
CCc1cccc(C)c1NC(=O)c1ccc2c(c1)CCN2S(C)(=O)=O | 19.3 (≈ 53.8 µM)
CN1CCC(N(C)c2ccc(C(N)=O)cc2[N+](=O)[O-])CC1 | 40.1 (≈ 137 µM)
COc1ccc([N+](=O)[O-])cc1NC(=O)C(C)OC(=O)Cc1ccc(OC)c(OC)c1 (stereo not given) | 31.1 (≈ 74.3 µM)
Cc1ccc2cc(NC(=O)c3ccc(C(C)(C)C)cc3)ccc2n1 | < 0.3
Cc1ccc(C(=O)CSc2nc(N)cc(=O)[nH]2)cc1C | 12.8 (≈ 44.2 µM)
Cc1ccc(NC(=S)N(C)C)cc1C | 29.4 (≈ 141 µM)
Cc1ccc(OCCCC(=O)NC(C)c2ccccc2)c(C)c1 (stereo not given) | 22.6 (≈ 72.6 µM)
CCSc1nc2ccccc2n1CC(=O)O | > 35.4
Cc1nc(NC(=O)CN2CC(C)OC(C)C2)sc1C(=O)N(C)C (stereo not given) | 44.2 (≈ 130 µM)

Compound | solubility kinetic [µg/mL]
Cc1cc(=O)oc2cc(NC(=O)c3cccc(S(C)(=O)=O)c3)ccc12 | 3.5 (≈ 9.79 µM)
CC(C)C(NC(=O)c1ccc(Cl)c([N+](=O)[O-])c1)C(=O)NCc1ccccn1 (stereo not given) | 40.6 (≈ 104 µM)
CC(NC(=O)c1ccncc1)c1ccc(Cl)cc1Cl (stereo not given) | > 44.3
O=C(COC(=O)/C=C/c1ccccc1[N+](=O)[O-])NC1CC1 | > 43.5
COc1ccc(C(=O)NC23CC4CC(CC(C4)C2)C3)cc1OC | 2.9 (≈ 9.19 µM)
CC(SCC(=O)Nc1ccccc1Br)c1nc2ccccc2c(=O)[nH]1 (stereo not given) | 3.2 (≈ 7.65 µM)
CCOC(=O)c1oc2nc(CC(C)C)c3c(c2c1N)CCCC3 | 1.4 (≈ 4.42 µM)
CCOC(=O)C[n+]1ccc2c([nH]c3ccccc32)c1C.[Br-] | 49.7
Cc1ccccc1CC(=O)Nc1ccc2c(C)cc(=O)oc2c1 | 2.1 (≈ 6.83 µM)
CNC(=O)N(C)c1ccc(C(O)(C(=O)OC)C(F)(F)F)cc1 (stereo not given) | 46.7 (≈ 146 µM)
O=S(=O)(c1ccccc1)c1cnc(-c2ccccc2)nc1N1CCCC1 | < 0.3
CCC1(CC)NC(=O)N(Cc2nc3ccccc3s2)C1=O | > 45.5
CCCCCCCN=C(C)c1ccccc1O | 13.9 (≈ 59.6 µM)
COc1cccc(OC)c1C1=NC(C)(C)CO1 | > 35.3
CCc1noc(C)c1C(=O)Nc1nc(-c2ccc(OC)cc2)cs1 | 2.3 (≈ 6.7 µM)
CC(C)(C)NC(=O)NCCc1ccccc1 | 30 (≈ 136 µM)
C=CCSc1nc2c(c(=O)[nH]1)C(c1ccccc1)C(C#N)=C(N)O2 (stereo not given) | 48.7 (≈ 144 µM)
Cc1ccc(S(=O)(=O)NCC(=O)Nc2ccc3c(c2)OCO3)cc1 | 49.4 (≈ 142 µM)
O=C1c2ccccc2CN1c1ccccc1 | 12.4 (≈ 59.3 µM)
COc1cc(/C=C/C(=O)OCC(=O)NC2CCCCCCC2)ccc1O | 36.2 (≈ 100 µM)

Continued, values first:

solubility kinetic [µg/mL] | Compound
43.8 | CC(C)c1ccc(OCC(O)CN2CCCC2)cc1.Cl (stereo not given)
> 36.3 | CCCCNC(=O)c1cc(C)nc2ccccc12
13.2 (≈ 46.9 µM) | CC1CCCN(S(=O)(=O)c2cccc3nonc23)C1 (stereo not given)
0.7 (≈ 2.27 µM) | Cc1ccc2cc3cc(C(=O)NC4CCCCC4)oc3nc2c1
39.4 (≈ 131 µM) | Cc1ccc2c(CN3CCCCC3CCO)cc(=O)oc2c1 (stereo not given)
40.7 (≈ 121 µM) | OCCC1CN(Cc2ccon2)CCN1Cc1ccc(F)c(F)c1 (stereo not given)
0.3 (≈ 0.957 µM) | O=C(Nc1ccc(F)cc1)Nc1ccccc1N1CCCCC1
46.3 (≈ 138 µM) | COc1cccc(CN2CCN(C3CCOCC3)CC2CCO)c1 (stereo not given)
> 39.3 | Cc1cccc(C(=O)NCC(=O)N2CCOCC2)c1
> 40.1 | Cc1ccnc2nc(C(=O)NCc3ccccc3)nn12
> 42.6 | O=C(NCCC(=O)N1CCc2ccccc21)c1ccco1
45.4 (≈ 144 µM) | O=C(Nc1cccc(Cl)c1)c1cncn1-c1ccc(F)cc1
46.3 (≈ 139 µM) | CC1=C(C)C(OCCCl)N(c2cc(O)c(Cl)cc2F)C1=O (stereo not given)
2.5 (≈ 7.35 µM) | CC1=C(C(=O)OCc2ccccc2)C(c2cccc(F)c2)NC(=O)N1 (stereo not given)
1.4 (≈ 4.99 µM) | O=C(c1cc2cc(F)ccc2[nH]1)N1CCc2ccccc21
> 49.5 | O=C(CC(c1ccccc1)c1cc(Cl)ccc1O)N1CCCC1 (stereo not given)
> 50.1 | CC1CN(c2ccc([N+](=O)[O-])cc2Cl)CCN1S(C)(=O)=O (stereo not given)
> 46.1 | CC(=O)c1ccc(NC(=S)N2CCN(CCO)CC2)cc1
> 47.3 | O=C(COC(=O)Cc1ccccc1F)NCCc1ccccc1
